Data as given in article PMC8903829 (eLife, 2022).

Experiments:
Type in all cases: cell-based
[1] = target: T1, hNaV1.3 (Homo sapiens, UniProt Q9NY46); test: Qube 384 automated patch-clamp, inactivated-state inhibition
T1 construct: expression vector containing the full-length cDNA coding for specific human and mouse sodium channel α-subunit; expressed in transfected cells
From the text: (§1) All of the cell lines tested negative for mycoplasma.
(§2) Inorm(CPD)=(ICPD−Icontrol)/(ITTX−Icontrol).

[2] = target: T2, hNaV1.2 (Homo sapiens, UniProt Q99250); test: as above
T2 construct: expression vector containing the full-length cDNA coding for specific human and mouse sodium channel α-subunit; expressed in transfected cells
From the text: as §1, §2

[3] = target: T3, mNaV1.2 (Mus musculus, UniProt B1AWN6); test: as above
T3 construct: expression vector containing the full-length cDNA coding for specific human and mouse sodium channel α-subunit; expressed in transfected cells
T3 sequence (B1AWN6 whole entry): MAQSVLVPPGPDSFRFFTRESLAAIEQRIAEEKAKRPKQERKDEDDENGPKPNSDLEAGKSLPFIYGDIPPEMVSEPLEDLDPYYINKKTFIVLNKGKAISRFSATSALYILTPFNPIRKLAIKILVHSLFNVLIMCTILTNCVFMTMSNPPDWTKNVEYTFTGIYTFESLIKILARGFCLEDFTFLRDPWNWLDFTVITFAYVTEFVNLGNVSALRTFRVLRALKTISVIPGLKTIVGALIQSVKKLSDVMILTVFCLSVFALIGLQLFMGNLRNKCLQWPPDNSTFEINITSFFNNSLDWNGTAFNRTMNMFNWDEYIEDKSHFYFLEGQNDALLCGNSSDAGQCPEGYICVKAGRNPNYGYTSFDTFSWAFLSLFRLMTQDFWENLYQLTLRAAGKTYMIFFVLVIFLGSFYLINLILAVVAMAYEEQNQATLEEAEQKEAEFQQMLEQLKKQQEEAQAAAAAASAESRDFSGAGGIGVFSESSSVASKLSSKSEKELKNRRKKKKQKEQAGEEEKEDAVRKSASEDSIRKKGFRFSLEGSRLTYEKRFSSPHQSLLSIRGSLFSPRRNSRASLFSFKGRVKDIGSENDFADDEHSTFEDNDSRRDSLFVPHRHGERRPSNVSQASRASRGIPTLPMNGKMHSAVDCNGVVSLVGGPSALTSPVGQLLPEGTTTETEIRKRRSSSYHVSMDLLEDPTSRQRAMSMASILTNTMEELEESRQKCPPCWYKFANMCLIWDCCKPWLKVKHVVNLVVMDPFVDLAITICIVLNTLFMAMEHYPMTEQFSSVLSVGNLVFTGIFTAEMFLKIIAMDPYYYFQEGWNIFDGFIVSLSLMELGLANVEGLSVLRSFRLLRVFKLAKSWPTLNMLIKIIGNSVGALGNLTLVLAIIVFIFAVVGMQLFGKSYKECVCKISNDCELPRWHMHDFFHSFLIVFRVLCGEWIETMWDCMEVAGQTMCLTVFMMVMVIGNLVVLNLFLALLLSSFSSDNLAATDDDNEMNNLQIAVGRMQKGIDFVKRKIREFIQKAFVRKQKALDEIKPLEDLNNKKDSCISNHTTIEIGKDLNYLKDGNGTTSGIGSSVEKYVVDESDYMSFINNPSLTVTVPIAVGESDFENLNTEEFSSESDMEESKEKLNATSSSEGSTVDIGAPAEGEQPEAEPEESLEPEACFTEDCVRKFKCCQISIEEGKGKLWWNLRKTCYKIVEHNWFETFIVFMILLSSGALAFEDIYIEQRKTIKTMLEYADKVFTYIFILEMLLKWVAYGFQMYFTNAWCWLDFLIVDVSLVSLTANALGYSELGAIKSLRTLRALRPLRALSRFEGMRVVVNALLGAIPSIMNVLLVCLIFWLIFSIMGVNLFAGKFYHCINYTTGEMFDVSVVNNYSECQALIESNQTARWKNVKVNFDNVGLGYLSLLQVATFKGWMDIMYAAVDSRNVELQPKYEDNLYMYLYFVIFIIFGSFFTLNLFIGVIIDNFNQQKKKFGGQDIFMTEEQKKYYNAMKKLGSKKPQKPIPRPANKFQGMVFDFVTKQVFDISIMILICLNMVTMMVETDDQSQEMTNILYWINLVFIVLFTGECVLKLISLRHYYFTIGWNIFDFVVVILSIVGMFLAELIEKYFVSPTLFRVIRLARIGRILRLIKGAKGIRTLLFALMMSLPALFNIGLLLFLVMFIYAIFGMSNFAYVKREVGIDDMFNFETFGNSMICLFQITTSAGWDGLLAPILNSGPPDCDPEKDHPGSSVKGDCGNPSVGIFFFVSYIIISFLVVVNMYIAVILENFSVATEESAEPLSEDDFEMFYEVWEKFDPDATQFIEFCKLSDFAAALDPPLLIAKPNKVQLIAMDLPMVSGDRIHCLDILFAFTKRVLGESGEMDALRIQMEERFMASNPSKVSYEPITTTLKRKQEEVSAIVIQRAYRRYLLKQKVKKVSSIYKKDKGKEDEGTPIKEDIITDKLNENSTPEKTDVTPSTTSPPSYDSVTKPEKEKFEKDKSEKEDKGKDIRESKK
From the text: as §1, §2

[4] = target: T4, hNaV1.7 (Homo sapiens, UniProt Q15858); test: as above
T4 construct: expression vector containing the full-length cDNA coding for specific human and mouse sodium channel α-subunit; expressed in transfected cells
T4 sequence (Q15858 1-1977 isoform Q15858-3): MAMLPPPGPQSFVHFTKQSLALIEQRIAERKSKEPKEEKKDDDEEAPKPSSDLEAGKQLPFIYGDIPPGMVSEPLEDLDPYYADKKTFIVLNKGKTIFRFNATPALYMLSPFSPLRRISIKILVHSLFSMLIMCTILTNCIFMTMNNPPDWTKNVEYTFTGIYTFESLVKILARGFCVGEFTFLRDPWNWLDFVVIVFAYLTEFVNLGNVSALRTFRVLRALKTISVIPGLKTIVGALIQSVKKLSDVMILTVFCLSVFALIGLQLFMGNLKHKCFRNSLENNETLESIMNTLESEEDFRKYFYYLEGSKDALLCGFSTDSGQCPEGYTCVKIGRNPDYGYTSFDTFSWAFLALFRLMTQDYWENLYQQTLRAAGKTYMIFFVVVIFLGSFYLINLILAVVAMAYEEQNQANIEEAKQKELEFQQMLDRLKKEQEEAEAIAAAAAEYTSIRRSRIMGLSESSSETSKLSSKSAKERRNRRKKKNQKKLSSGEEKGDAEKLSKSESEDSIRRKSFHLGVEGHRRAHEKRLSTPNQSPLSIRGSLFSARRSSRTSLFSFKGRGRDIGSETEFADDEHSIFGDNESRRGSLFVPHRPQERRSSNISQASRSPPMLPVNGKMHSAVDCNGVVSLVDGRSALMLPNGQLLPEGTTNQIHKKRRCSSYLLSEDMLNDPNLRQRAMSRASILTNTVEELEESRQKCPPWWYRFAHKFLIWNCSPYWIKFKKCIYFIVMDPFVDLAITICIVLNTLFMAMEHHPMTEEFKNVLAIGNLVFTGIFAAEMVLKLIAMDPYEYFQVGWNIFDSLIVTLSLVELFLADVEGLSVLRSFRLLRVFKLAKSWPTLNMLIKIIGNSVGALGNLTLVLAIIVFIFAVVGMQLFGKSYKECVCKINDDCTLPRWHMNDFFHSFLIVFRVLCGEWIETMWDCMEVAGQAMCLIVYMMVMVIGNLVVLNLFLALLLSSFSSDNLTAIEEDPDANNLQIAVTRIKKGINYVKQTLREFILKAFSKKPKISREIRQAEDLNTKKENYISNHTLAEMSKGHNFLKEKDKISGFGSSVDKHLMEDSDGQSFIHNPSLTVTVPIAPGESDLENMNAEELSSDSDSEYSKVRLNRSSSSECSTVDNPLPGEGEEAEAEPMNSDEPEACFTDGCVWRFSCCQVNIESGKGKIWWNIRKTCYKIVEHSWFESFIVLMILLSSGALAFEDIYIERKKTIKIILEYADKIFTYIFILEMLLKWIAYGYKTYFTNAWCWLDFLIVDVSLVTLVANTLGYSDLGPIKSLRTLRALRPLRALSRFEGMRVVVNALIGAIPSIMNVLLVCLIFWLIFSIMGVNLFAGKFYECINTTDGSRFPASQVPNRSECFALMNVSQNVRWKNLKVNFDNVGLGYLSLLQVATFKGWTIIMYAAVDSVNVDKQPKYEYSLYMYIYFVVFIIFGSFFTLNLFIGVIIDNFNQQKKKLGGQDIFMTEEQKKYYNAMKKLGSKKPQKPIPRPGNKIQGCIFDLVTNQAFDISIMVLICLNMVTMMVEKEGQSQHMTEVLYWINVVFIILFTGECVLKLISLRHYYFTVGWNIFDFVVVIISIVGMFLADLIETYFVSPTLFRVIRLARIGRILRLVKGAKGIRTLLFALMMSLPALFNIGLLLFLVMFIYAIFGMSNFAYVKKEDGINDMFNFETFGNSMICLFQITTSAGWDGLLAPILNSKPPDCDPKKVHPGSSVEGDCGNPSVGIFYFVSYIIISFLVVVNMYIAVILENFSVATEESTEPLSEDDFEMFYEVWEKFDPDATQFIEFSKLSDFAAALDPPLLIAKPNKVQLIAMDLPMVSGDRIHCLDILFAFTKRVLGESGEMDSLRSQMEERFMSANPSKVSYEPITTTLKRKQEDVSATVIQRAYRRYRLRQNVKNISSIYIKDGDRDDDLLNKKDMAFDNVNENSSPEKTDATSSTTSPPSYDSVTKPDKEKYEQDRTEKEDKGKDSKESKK
From the text: as §1, §2

[5] = target: T5, mNaV1.1 (Mus musculus, UniProt A2APX8); test: as above
T5 construct: expression vector containing the full-length cDNA coding for specific human and mouse sodium channel α-subunit; expressed in transfected cells
From the text: as §1, §2

[6] = target: T6, hNaV1.6(N1768D) resurgent currents (Homo sapiens, UniProt Q9UQD0, N1768D); test: Resurgent current inhibition
T6 construct: expression vector containing the full-length cDNA coding for specific human and mouse sodium channel α-subunit; expressed in transfected cells

`Cc1cc(S(=O)(=O)Nc2cscn2)c(F)cc1N(C)[C@H]1CCN(Cc2ccccc2)C1` [NBI-921352] was tested. Which “hNaV1.3 current (352)/(Vehicle), mean” value ([1]; -5.95429 Log M) did it give?
The value was -0.01.

What about the “hNaV1.3 current (352)/(Vehicle), mean” value ([1]; -6.91009 Log M) of the same compound?
The value was 0.01.

What about the “hNaV1.3 current (352)/(Vehicle), mean” value ([1]; -7.38722 Log M) of the same compound?
Its value is 0.02.

And the “hNaV1.3 current (352)/(Vehicle), mean” value ([1]; -7.85387 Log M)?
The value was -0.01.

What about the IC50 ([1]; Vh -45 mV, HEK-293) of the same compound?
Its IC50 is greater than 30 µM.

And the “hNav1.2 current (352)/(Vehicle), mean” value ([2]; -4 Log M)?
The value was 0.88.

What about the “hNav1.2 current (352)/(Vehicle), mean” value ([2]; -4.47713 Log M) of the same compound?
Its value is 0.78.

And the “hNav1.2 current (352)/(Vehicle), mean” value ([2]; -4.95425 Log M)?
Its value is 0.6.

And the “hNav1.2 current (352)/(Vehicle), mean” value ([2]; -5 Log M)?
The value was 0.66.

And the “hNav1.2 current (352)/(Vehicle), mean” value ([2]; -5.43133 Log M)?
Its value is 0.42.

What about the “hNav1.2 current (352)/(Vehicle), mean” value ([2]; -5.47716 Log M) of the same compound?
Its value is 0.44.

And the “hNav1.2 current (352)/(Vehicle), mean” value ([2]; -5.90833 Log M)?
Its value is 0.21.

And the “hNav1.2 current (352)/(Vehicle), mean” value ([2]; -5.95429 Log M)?
Its value is 0.14.

What about the “hNav1.2 current (352)/(Vehicle), mean” value ([2]; -6.3851 Log M) of the same compound?
The value was 0.11.

What about the “hNav1.2 current (352)/(Vehicle), mean” value ([2]; -6.86328 Log M) of the same compound?
The value was 0.04.

What about the “hNav1.2 current (352)/(Vehicle), mean” value ([2]; -6.91009 Log M) of the same compound?
The value was 0.03.

What about the “hNav1.2 current (352)/(Vehicle), mean” value ([2]; -7.33724 Log M) of the same compound?
The value was 0.01.

What about the “hNav1.2 current (352)/(Vehicle), mean” value ([2]; -7.38722 Log M) of the same compound?
Its value is 0.

And the “hNav1.2 current (352)/(Vehicle), mean” value ([2]; -7.85387 Log M)?
The value was 0.01.

What about the “hNav1.2 current (352)/(Vehicle), mean” value ([2]; -8.30103 Log M) of the same compound?
The value was 0.01.

And the IC50 ([2]; Vh -45 mV, HEK-293)?
Its IC50 is 6.9 µM.

What about the “mNaV1.2 current (352)/(Vehicle)” value ([3]; -4.22185 Log M) of the same compound?
The value was 0.86.

What about the “mNaV1.2 current (352)/(Vehicle)” value ([3]; -4.69897 Log M) of the same compound?
The value was 0.58.

What about the “mNaV1.2 current (352)/(Vehicle)” value ([3]; -5.17607 Log M) of the same compound?
The value was 0.39.

What about the “mNaV1.2 current (352)/(Vehicle)” value ([3]; -5.65326 Log M) of the same compound?
The value was 0.19.

And the “mNaV1.2 current (352)/(Vehicle)” value ([3]; -6.13018 Log M)?
Its value is 0.14.

And the “mNaV1.2 current (352)/(Vehicle)” value ([3]; -6.6073 Log M)?
The value was 0.04.

What about the “mNaV1.2 current (352)/(Vehicle)” value ([3]; -7.08619 Log M) of the same compound?
Its value is 0.08.

What about the “mNaV1.2 current (352)/(Vehicle)” value ([3]; -7.56864 Log M) of the same compound?
Its value is 0.05.

What about the IC50 ([3]; Vh -45 mV) of the same compound?
The IC50 was 11 µM.

And the “hNav1.7 current (352)/(Vehicle), mean” value ([4]; -4.52288 Log M)?
Its value is 0.74.

What about the “hNav1.7 current (352)/(Vehicle), mean” value ([4]; -5 Log M) of the same compound?
Its value is 0.41.

What about the “hNav1.7 current (352)/(Vehicle), mean” value ([4]; -5.47716 Log M) of the same compound?
The value was 0.2.

What about the “hNav1.7 current (352)/(Vehicle), mean” value ([4]; -5.95429 Log M) of the same compound?
The value was 0.08.

What about the “hNav1.7 current (352)/(Vehicle), mean” value ([4]; -6.91009 Log M) of the same compound?
Its value is 0.02.

And the “hNav1.7 current (352)/(Vehicle), mean” value ([4]; -7.38722 Log M)?
The value was 0.01.

And the “hNav1.7 current (352)/(Vehicle), mean” value ([4]; -7.85387 Log M)?
Its value is 0.02.

What about the “hNav1.7 current (352)/(Vehicle), mean” value ([4]; -8.30103 Log M) of the same compound?
Its value is -0.02.

What about the IC50 ([4]; Vh -60 mV, HEK-293) of the same compound?
The IC50 was 14 µM.

What about the “mNaV1.1 current (352)/(Vehicle)” value ([5]; -4.22185 Log M) of the same compound?
The value was 0.61.

What about the “mNaV1.1 current (352)/(Vehicle)” value ([5]; -4.69897 Log M) of the same compound?
The value was 0.28.

What about the “mNaV1.1 current (352)/(Vehicle)” value ([5]; -5.17607 Log M) of the same compound?
Its value is 0.19.

What about the “mNaV1.1 current (352)/(Vehicle)” value ([5]; -5.65326 Log M) of the same compound?
Its value is 0.12.

And the “mNaV1.1 current (352)/(Vehicle)” value ([5]; -6.13018 Log M)?
The value was 0.05.

And the “mNaV1.1 current (352)/(Vehicle)” value ([5]; -6.6073 Log M)?
The value was -0.03.

What about the “mNaV1.1 current (352)/(Vehicle)” value ([5]; -7.08619 Log M) of the same compound?
The value was -0.01.

What about the “mNaV1.1 current (352)/(Vehicle)” value ([5]; -7.56864 Log M) of the same compound?
The value was 0.

What about the IC50 ([5]; Vh -45 mV) of the same compound?
The IC50 was 41 µM.

What about the “N1768D current in (352)/(Vehicle), Resurgent, mean” value (“N1768D current in (352)/(Vehicle)” below) ([6]; -5 Log M) of the same compound?
Its value is 0.94.

And the “N1768D current in (352)/(Vehicle)” value ([6]; -5.47716 Log M)?
The value was 0.88.

And the “N1768D current in (352)/(Vehicle)” value ([6]; -5.95429 Log M)?
The value was 0.86.

And the “N1768D current in (352)/(Vehicle)” value ([6]; -6.91009 Log M)?
The value was 0.8.

And the “N1768D current in (352)/(Vehicle)” value ([6]; -7.38722 Log M)?
Its value is 0.57.

What about the “N1768D current in (352)/(Vehicle)” value ([6]; -7.85387 Log M) of the same compound?
Its value is 0.18.

What about the IC50 ([6]; NaVβ4 peptide 200 μM intracellular, read-out: apparent IC50 resurgent currents from N1768D channels) of the same compound?
Its IC50 is 0.037 µM.
